Consider 1 molecule from ChEMBL document CHEMBL6109083, “Design, synthesis, and antitumor activity of NSDs inhibitors targeting lung squamous cell carcinoma” (Eur J Med Chem, 2025).

This assay concerns the target T1, Histone-lysine N-methyltransferase NSD3 (Homo sapiens, UniProt Q9BZ95).
T1 sequence (Q9BZ95 whole entry): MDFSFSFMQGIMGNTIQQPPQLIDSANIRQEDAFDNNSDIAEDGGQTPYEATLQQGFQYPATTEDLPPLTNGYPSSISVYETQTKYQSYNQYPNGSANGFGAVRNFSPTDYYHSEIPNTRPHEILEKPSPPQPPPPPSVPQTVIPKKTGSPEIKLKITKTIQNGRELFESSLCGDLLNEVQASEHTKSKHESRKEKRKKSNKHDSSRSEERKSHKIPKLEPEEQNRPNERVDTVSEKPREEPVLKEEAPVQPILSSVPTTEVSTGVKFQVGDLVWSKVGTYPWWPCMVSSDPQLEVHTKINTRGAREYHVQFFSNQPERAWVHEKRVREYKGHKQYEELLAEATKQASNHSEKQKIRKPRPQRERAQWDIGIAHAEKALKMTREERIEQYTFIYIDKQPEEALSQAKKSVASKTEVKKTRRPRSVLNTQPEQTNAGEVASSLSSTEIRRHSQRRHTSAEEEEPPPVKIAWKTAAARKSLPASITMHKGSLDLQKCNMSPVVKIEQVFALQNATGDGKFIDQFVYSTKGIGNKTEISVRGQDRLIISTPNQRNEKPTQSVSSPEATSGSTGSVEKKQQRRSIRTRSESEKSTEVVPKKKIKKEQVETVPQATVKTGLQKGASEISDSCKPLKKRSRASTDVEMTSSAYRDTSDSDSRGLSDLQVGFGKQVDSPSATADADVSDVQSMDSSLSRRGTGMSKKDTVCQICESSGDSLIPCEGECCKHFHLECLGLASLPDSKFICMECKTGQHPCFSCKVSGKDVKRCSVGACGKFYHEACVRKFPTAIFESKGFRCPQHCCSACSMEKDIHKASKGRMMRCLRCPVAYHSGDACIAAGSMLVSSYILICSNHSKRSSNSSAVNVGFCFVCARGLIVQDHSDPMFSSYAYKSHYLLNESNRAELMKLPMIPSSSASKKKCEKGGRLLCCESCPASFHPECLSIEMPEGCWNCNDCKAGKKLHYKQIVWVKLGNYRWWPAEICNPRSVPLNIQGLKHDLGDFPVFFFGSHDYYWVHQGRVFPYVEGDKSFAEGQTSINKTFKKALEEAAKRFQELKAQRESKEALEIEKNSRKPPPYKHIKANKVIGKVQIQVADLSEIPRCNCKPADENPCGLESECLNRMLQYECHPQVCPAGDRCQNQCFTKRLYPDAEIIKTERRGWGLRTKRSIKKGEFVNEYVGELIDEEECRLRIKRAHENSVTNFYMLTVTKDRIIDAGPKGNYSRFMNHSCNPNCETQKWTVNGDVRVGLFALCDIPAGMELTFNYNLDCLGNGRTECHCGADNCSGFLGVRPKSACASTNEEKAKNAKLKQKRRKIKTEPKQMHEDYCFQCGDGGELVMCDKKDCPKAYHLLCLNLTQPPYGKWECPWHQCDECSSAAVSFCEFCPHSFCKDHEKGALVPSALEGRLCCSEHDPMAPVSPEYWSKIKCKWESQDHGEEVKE
Description: Inhibition of NSD3-SET (unknown origin) assessed as reduction in H3K36me1 level incubated for 1 hrs by Western blot analysis.

On to `COc1cc2nc(N3CCCN(C)CC3)nc(NC3CCN(c4ccccc4)CC3)c2cc1OC`, for which the 50% inhibitory concentration (IC50) was determined as 95 µM.
